PMC8480759, “Inhibitors of histone deacetylase 6 based on a novel 3-hydroxy-isoxazole zinc binding group” (Journal of Enzyme Inhibition and Medicinal Chemistry, 2021)

Assays:
[1] = tested on: acetylation levels of histone H3 (HDAC1 target) in DU145 cells; test: Western blot of histone H3 acetylation in DU145 cells; format: cell-based, human; details: 24 h, 10 µM
Protocol: (§1) The results corroborate the inhibitory activity of 17, 23, 25 and 27 at concentrations lower than 10 µM. […] HDACs contribution to CRPC is known[20] and the possibility to arrest CRPC proliferation by acting on HDAC targets is expanding in the scientific literature[21]^,[22]. After administration of the selected compounds for 24 h at 10 µM concentration, the effect on the acetylation levels of histone H3 and α-tubulin (respectively, HDAC1 and HDAC6 targets) was investigated. […] Lastly, in the same cell line, the anti-proliferative effect was measured in dose and time dependent manner (Figure S4).
Figure S3. Western blotting analysis of the tested and reference compounds SAHA and Tubastatin A on acetylation levels of histone H3 and α-tubulin in DU145 cells. GAPDH and H4 were used as a loading control. Densitometric values were analyzed using ImageJ Software and are reported on the top of bands as the ratio between loading control and acetylated target.
(1 picture or pasted object on this page, not shown here) […]
1.4 Western blot analysis
The prostate cancer cell line DU145 (ATCC) was grown in RPMI medium (Euroclone, Milan, Italy) with 10% fetal bovine serum (Euroclone), 2 mM L-glutamine (Euroclone), and antibiotics (100 U/mL penicillin, […] streptomycin) (Euroclone). Cells were stimulated with drugs for […]
Total Protein Extraction and western blot
After the induction with the test compounds at the indicated times and concentrations, DU145 cells were then harvested, washed with phosphate-buffered saline (PBS) (Euroclone), and lysed for 15 min at 4 °C in lysis extraction buffer with protease and phosphatase inhibitors (50 mM Tris -HCl pH 8.0, 150 mM NaCl, 1% NP40, 10 mM sodium fluoride, 0.1 mM sodium orthovanadate, […] phenylmethylsulfonyl fluoride 58 (PMSF), 20 g/mL aprotinin, […] leupeptin, […] antipain, 10 mM p -nitrophenyl phosphate, […] pepstatin A and 20 nM okada ic acid). Cells were vortexed then centrifuged at 13000 rpm for 30 min at 4 °C. Bradford assay (Biorad, Italy) was used to quantify protein concentration. […] The immune complexes were first detected with horseradish peroxidase-conjugated species-specific secondary antiserum (Bio-Rad Laboratories, Milan, Italy), and then by an enhanced chemiluminescence reaction (Bio-Rad Laboratories, Milan, Italy). […]
were harvested and washed twice with cold 1× PBS and lysed in Triton extraction buffer (TEB; PBS containing 0.5% Triton X 100 (v/v), 2 mM PMSF, and 0.02% (w/v) NaN3) for 10 min on ice, with gentle stirring. […] The samples were then centrifuged at 2000 rpm for 10 min at 4 °C; the concentration of protein in the supernatant was determined […]
using a Bradford assay (Bio-Rad, CA, USA). […] Semi-quantitative analysis was performed using ImageJ software. […]

DU145 cells = test: Anti-proliferative assay (MTT cell viability); format: cell-based, human; details: for effect on proliferation rate of DU145 cells: 50 µM, MTT, 24, 48, 72 h; for anti-proliferative activity at the lowest concentrations: DU145, late phases, lowest concentrations (tested 1, 5, 10, 50 µM)
Protocol: as §1
Figure S4. Cell viability assay (MTT) of the tested compounds in human prostate cancer cell lines (DU145). Cells were treated with 4 increasing concentrations (1, 5, 10, and 50 µM) of tested compounds, monitored at 24, 48, and 72 hours and tested with SAHA and Tubastatin A as reference compounds. Data are expressed as mean ± SEM. […]
1.5 Anti-proliferative assay
Cell viability was determined on DU145 cell line using Thiazolyl Blue Tetrazolium Bromide [3-(4,5-dimethylthiazol-2-yl)-2,5-diphenyltetrazolium bromide] (MTT; Sigma-Aldrich) assay after treatment with new compounds at indicated concentrations. A total of 2 × 10^4 cells/well were plated in a 96-well plate and treated, in duplicates, with new compounds at different concentrations for 24, 48, and 72 hours. Absorbance was read at a wavelength of 570 nm with a TECAN M-200 reader (Tecan, Männedorf, Switzerland).

Compound	effect on acetylation levels of histone H3 [1]	effect on proliferation rate of DU145 cells (DU145 cells)	anti-proliferative activity at the lowest concentrations (DU145 cells)
Oc1cc(-c2ccc3c(c2)OCO3)on1 [Compound 25]	no effect	reduced the proliferation rate	exerted anti-proliferative activity
Oc1cc(-c2ccc(NCc3ccccc3)cc2)on1 [Compound 23]	no effect	reduced the proliferation rate	exerted anti-proliferative activity
